# From EP0353821B1, “Antipsychotic 3-piperazinyl-benzazole derivatives” (JANSSEN PHARMACEUTICA N.V., priority 1988, dated 1990)
# Like-named read-outs stand apart in the source and are kept apart here.
# Key:
# [1] = system: apomorphine-induced phenomena: agitation and stereotypic chewing; assay: Combined apomorphine-, tryptamine- and norepinephrine test in rats: apomorphine (APO) part; type: in vivo, adult male Wistar rats; conditions: Rattus norvegicus, read-out: Combined test in rats, ED₅₀ in mg/kg (APO)
# Protocol: (§1) The combined apomorphine (APO)-, tryptamine (TRY)- and norepinephrine (NOR) test in rats.
# (§2) The experimental animals used in this test were adult male Wistar rats (weight 240 ± 10g). After an overnight fast the animals were treated subcutaneously or orally with an aqueous solution of the compound under investigation (1ml/100g body weight) (time = zero) and put in isolated observation cages. […] At the end of this 1 hour period (time = 90 minutes) the same animals were injected intravenously with 40 mg/kg of tryptamine (TRY) and the presence of the typical tryptamine-induced bilateral tonic seizures and hyperaemia of the ears was noted. Two hours after pretreatment (time = 120 minutes) finally, the same animals were challenged with 1.25 mg/kg intravenously of norephinephrine (NOR) and possible mortality was looked for up to 60 minutes later.
# (§3) The table 3 gives the ED₅₀-values of a number of the compounds under consideration. As used herein, the ED₅₀-value represents the dose which protects 50% of the animals from apomorphine-, tryptamine- or norepinephrine-induced phenomena.
# [2] = system: norepinephrine-induced phenomena (mortality); assay: Combined apomorphine-, tryptamine- and norepinephrine test in rats: norepinephrine (NOR) part; type: in vivo, adult male Wistar rats; conditions: Rattus norvegicus; compound subcutaneously or orally; 1.25 mg/kg norepinephrine i.v. at 120 minutes; mortality up to 60 minutes later; dose which protects 50% of the animals; read-out: Combined test in rats; ED₅₀ in mg/kg (NOR)
# Protocol: as §1, §2, §3
# [3] = system: tryptamine-induced bilateral tonic seizures and hyperaemia of the ears; assay: Combined apomorphine-, tryptamine- and norepinephrine test in rats: tryptamine (TRY) part; type: in vivo, adult male Wistar rats; conditions: Rattus norvegicus, 1.5 h, compound subcutaneously or orally, 40 mg/kg tryptamine i.v. at 90 minutes, dose which protects 50% of the animals, read-out: Combined test in rats
# Protocol: as §1, §2, §3
# apomorphine (emesis) = assay: The apomorphine test in dogs (APO-dog); type: in vivo, beagle dogs; conditions: Canis lupus familiaris, 1 h; compound subcutaneously or orally; 0.31 mg/kg (s.c.) apomorphine one hour thereafter; dose which protects 50% of the animals from emesis; read-out: (APO)-dog test, ED₅₀ in mg/kg
# Protocol: The apomorphine test in dogs (APO-dog).
# The method used is described by P.A.J. Janssen and C.J.E. Niemegeers in Arzneim.-Forsch. (Drug Res.), 9, 765-767 (1959). The compounds listed in table 3 were administered subcutaneously or orally to beagle dogs at different doses and the animals were challenged one hour thereafter with a standard dose of 0.31 mg/kg (s.c.) of apomorphine.
# The table 3 gives the ED₅₀-values of a number of the compounds under consideration. As used herein, the ED₅₀ value represents the dose which protects 50% of the animals from emesis.
# [4] = bilateral tonic seizures, ED₅₀ in mg/kg (TRY)-convulsions
# [5] = hyperaemia of the ears, ED₅₀ in mg/kg (TRY)-hyperaemia
# [6] = compound subcutaneously or orally, 1.25 mg/kg apomorphine i.v. at 30 minutes, observed 1 hour, dose which protects 50% of the animals
SMILES,ED50 [1] [mg/kg],ED50 [2] [mg/kg],"ED50 [3, 4] [mg/kg]","ED50 [3, 5] [mg/kg]",ED50 (apomorphine (emesis)) [mg/kg],"ED50 [1, 6] [mg/kg]"
Cc1nc2ccccn2c(=O)c1CCN1CCN(c2nsc3ccccc23)CC1 [Compound 11],0.08,1.25,0.08,0.00031,0.45,–
Cc1nc2scc(C)n2c(=O)c1CCN1CCN(c2noc3cc(F)ccc23)CC1 [Compound 39],–,0.31,0.04,< 0.04,0.03,0.08
Cc1nc2ccccn2c(=O)c1CCN1CCN(c2n[nH]c3cc(F)ccc23)CC1 [Compound 16],–,–,0.08,0.005,< 0.01,0.08
Cc1nc2sccn2c(=O)c1CCN1CCN(c2n[nH]c3ccccc23)CC1 [Compound 64],0.08,1.25,0.08,0.005,–,–
Cc1nc2scc(C)n2c(=O)c1CCN1CCN(c2n[nH]c3ccccc23)CC1 [Compound 65],0.08,1.25,0.04,0.00063,–,–
Cc1nc2n(c(=O)c1CCN1CCN(c3n[nH]c4cc(F)ccc34)CC1)CCCC2C (stereo not drawn) [Compound 56],–,0.16,0.08,0.005,0.00045,0.08
Cc1nc2c(C)cccn2c(=O)c1CCN1CCN(c2n[nH]c3cc(F)ccc23)CC1 [Compound 47],–,0.08,0.08,0.000125,0.001,0.04
Cc1nc2scc(C)n2c(=O)c1CCN1CCN(c2n[nH]c3cc(F)ccc23)CC1 [Compound 40],–,0.08,0.02,0.00031,0.0025,0.02
Cc1nc2n(c(=O)c1CCN1CCN(c3noc4ccccc34)CC1)CCS2 [Compound 27],–,0.31,0.03,0.00125,0.06,0.03
Cc1nc2n(c(=O)c1CCN1CCN(c3noc4cc(F)ccc34)CC1)CCCS2 [Compound 25],–,0.31,0.08,≤ 0.01,0.06,0.08
Cc1nc2c(C)cccn2c(=O)c1CCN1CCN(c2noc3ccccc23)CC1 [Compound 45],0.04,1.25,0.08,0.02,> 0.01,–
"Cc1nc2n(c(=O)c1CCN1CCN(c3noc4cc(F)ccc34)CC1)CCS2 [Compound 3, 6-[2-[4-(6-fluoro-1,2-benzisoxazol-3-yl)-1-piperazinyl]ethyl]-2,3-dihydro-7-methyl-5H-thiazolo[3,2-a]pyrimidin-5-one]",–,0.08,0.005,0.00125,0.07,0.02
Cc1nc2ccccn2c(=O)c1CCN1CCN(c2n[nH]c3ccccc23)CC1 [Compound 41],0.08,1.25,0.04,0.005,0.03,–
Cc1nc2sccn2c(=O)c1CCN1CCN(c2noc3ccccc23)CC1 [Compound 31],0.03,1.25,0.02,0.00031,0.03,–
Cc1nc2n(c(=O)c1CCN1CCN(c3nsc4ccccc34)CC1)CCS2 [Compound 26],–,5,0.02,0.00125,0.03,0.08
Cc1nc2ccccn2c(=O)c1CCN1CCN(c2noc3cc(F)ccc23)CC1 [Compound 15],–,0.31,0.08,0.005,0.015,0.04
Cc1nc2n(c(=O)c1CCN1CCN(c3noc4cc(F)ccc34)CC1)CCCC2 [Compound 20],–,–,0.08,0.005,0.015,0.08
Cc1nc2sccn2c(=O)c1CCN1CCN(c2noc3cc(F)ccc23)CC1 [Compound 34],–,0.31,0.08,< 0.01,0.015,0.02
Cc1nc2n(c(=O)c1CCN1CCN(c3nsc4ccccc34)CC1)CCCC2C (stereo not drawn) [Compound 55],–,10,0.04,0.0025,> 0.016,0.04
Cc1nc2sccn2c(=O)c1CCN1CCN(c2n[nH]c3cc(F)ccc23)CC1 [Compound 63],–,0.16,0.02,0.00125,0.001,0.02
